Our source for the Activity and Ki values is ChEMBL document CHEMBL4184147, “Polyphenolic Phytochemicals in Cancer Prevention and Therapy: Bioavailability versus Bioefficacy” (J Med Chem, 2017).

One assay relates to Lipid bilayer. The assay is described as follows: Induction of DOPC/n-decane bilayer property changes assessed as concentration required to double gramicidin-induced quencher influx rate by […].
Assay [1] is described as follows: Displacement of [3H]resveratrol from Sprague-Dawley rat brain plasma membranes after 1 hr by beta counting method. Type of assay: cell membranes.

SMILES strings stand for the structures.

Consider `COc1cc(CNC(=O)CCCC/C=C/C(C)C)ccc1O`, for which, in the assay on Lipid bilayer, the Activity came to 18 µM.
As to `O=C(O[C@@H]1Cc2c(O)cc(O)cc2O[C@@H]1c1ccc(O)c(O)c1)c1cc(O)c(O)c(O)c1` [EPICATECHIN GALLATE], the inhibitory constant (Ki) in assay [1] lay within 25 to 45 nM.
